# Reference: patent US10561646B2, “EGFR inhibitor and pharmaceutically acceptable salt and polymorph thereof, and use thereof” (SHANGHAI HAIYAN PHARMACEUTICAL TECHNOLOGY CO., LTD., priority 2015, dated 2020)
# Entries after “also recorded” stand apart in the source; their conditions may differ. Where two headings read alike, the source gives them in different places.
# How the values were obtained:
# [1] = Hygroscopicity / DVS test; assay type: physicochemical; conditions: for moisture absorbed: humidity increased to 80% RH at 25° C.
# Protocol: Dynamic Vapor Sorption (DVS) curve: collected on DVS Intrinsic SMS (Surface Measurement Systems). The relative humidity at 25° C. is corrected with the deliquescent points of LiCl, Mg (NO3)2 and KCl.
# The rate of weight loss increases when the humidity is reduced to 20% RH at 25° C.
# The DVS test was performed on crystal form II sample at a constant temperature of 25° C.
# In order to assess the stability of anhydrous crystal form I and hydrate crystal form II under different humidity conditions, DVS assay was performed on samples of anhydrous crystal form I and hydrate crystal form II at constant 25° C.
# When the humidity reaches 20% RH, a turning point appears in the isothermal map of DVS, which is caused by the transition from anhydrous crystal form I to hydrate form II according to the XRPD comparison of the samples before and after the DVS assay shown in FIG. 32. The actual moisture absorbed is less than the moisture content of crystal form II sample due to the slow solid phase transition rate.
# [2] = Suspension competition test between crystal forms; assay type: physicochemical; conditions: for stability relationship crystal form II / IV: acetone/H2O (aw 0.6), about 5 minutes
# Protocol: Firstly, the suspension of maleate crystal form C-1 in acetone was prepared at two temperature respectively, and filtered after balancing for about one hour.
# In order to further confirm the stability relationship between anhydrous crystal form I and hydrate crystal form II under different water activity conditions at room temperature, the mixture of crystal form I and crystal form II was suspended and stirred in acetone/H2O solvent system with different water activities (aw—0.2/0.4/0.6/0.8).
# In order to study the stability relationship between different hydrate crystal form II and IV at room temperature to 50° C., a suspension competition test was set up in aqueous system at room temperature and 50° C. respectively. Firstly, the free base suspension in acetone/H2O (aw—0.6) was prepared at room temperature and 50° C. respectively. After balancing at the corresponding temperature for about 1 hour, the suspension was filtered to obtain the near saturated solution at the corresponding temperature. An equal quantity of crystal form II and IV samples (about 6 mg each) was added to 0.8 ml of saturated solution to form a suspension which was magnetically stirred (−800 rpm) at room temperature and 50° C. for about 5 minutes, and sampled for XRPD test.
# [3] = Solid phase stability experiment (XRPD, HPLC, TGA after one week); assay type: physicochemical; conditions: for Purity (%): HPLC; for Weight loss (%): TGA; for crystal transition: XRPD
# Protocol: An appropriate amount of samples were weighed and stored at 25° C./60% RH and 40° C./75% RH (unsealed), respectively. Another set of samples were sealed and kept as a control at 5° C. at the same time. All samples were characterized by XRPD, HPLC and TGA one week later, and the crystal form, purity and weight loss were tested.
# A431 cells [4] = assay: Cytostatic activity by MTT method, A431; assay type: cell-based
# [5] = Dynamic solubility experiment in water, SGF, FaSSIF, FeSSIF; assay type: physicochemical; conditions: thermodynamic from solid, room temperature
# EGFR WT kinase = biological target: T1, EGFR WT kinase (Homo sapiens, UniProt P00533); assay: Wild type EGFR kinase inhibition test (z-lyte); assay type: biochemical
# T1 construct: purchased Invitrogen PV3872
# T1 sequence (P00533 25-1210): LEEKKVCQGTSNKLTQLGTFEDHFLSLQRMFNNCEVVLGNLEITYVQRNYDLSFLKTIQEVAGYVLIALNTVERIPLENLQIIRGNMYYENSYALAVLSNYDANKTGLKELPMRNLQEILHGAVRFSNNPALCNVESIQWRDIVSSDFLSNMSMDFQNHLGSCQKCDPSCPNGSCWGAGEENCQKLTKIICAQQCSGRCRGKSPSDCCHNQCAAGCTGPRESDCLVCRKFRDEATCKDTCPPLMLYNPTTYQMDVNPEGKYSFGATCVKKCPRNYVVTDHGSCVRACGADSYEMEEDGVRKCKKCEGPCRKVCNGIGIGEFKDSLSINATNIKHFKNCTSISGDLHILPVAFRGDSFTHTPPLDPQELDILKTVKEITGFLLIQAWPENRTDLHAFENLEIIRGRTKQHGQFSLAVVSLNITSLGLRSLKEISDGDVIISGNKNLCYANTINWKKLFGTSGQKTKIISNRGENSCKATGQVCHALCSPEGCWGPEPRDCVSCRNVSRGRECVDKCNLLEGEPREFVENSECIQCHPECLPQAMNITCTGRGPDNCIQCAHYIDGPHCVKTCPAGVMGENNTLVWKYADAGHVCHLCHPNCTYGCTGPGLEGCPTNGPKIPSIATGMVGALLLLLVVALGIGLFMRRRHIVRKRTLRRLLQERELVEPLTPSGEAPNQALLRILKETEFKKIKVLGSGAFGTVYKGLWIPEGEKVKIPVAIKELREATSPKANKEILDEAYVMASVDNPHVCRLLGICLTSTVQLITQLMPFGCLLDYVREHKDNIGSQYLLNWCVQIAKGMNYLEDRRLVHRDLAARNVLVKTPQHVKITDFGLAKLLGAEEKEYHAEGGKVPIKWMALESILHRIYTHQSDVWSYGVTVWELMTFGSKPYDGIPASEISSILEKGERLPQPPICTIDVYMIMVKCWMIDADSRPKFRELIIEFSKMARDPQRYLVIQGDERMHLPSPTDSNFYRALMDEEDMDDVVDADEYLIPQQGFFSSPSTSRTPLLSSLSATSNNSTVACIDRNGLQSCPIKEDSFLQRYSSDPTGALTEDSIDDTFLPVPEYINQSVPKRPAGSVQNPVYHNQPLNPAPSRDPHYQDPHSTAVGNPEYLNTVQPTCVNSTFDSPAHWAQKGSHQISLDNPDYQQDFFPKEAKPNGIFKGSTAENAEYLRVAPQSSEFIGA
# H1975 cells [6] = assay: Cytostatic activity by MTT method, H1975; assay type: cell-based
# [7] = In vivo test of rats, pharmacokinetics after oral gavage; parameters: species or system SD rats; conditions: rat, oral gavage 5 mg/kg; for Area under the curve AUC / Half-life T1/2: plasma
# NIH3T3 cells = assay: Cytotoxicity against NIH3T3 cells, MTT assay; assay type: cell-based; conditions: Mus musculus, 72 h incubation
# H1975 cells [8] = assay: Activities of EGFR T790M inhibitor on cells by ELISA, H1975; assay type: cell-based; conditions: Homo sapiens, NCI-H1975
# A431 cells [9] = assay: Activities on cells by ELISA, A431 (EGF stimulated); assay type: cell-based; conditions: Homo sapiens, A-431
# [10] = room temperature, crude solubility
# [11] = Storage of crystal form C-1 at 80° C. for 24 hours (XRPD, HPLC); assay type: physicochemical
molecule,measurement,setting,value
C=CC(=O)Nc1cc(Nc2ncc(F)c(-c3cnn(C)c3)n2)c(OC)cc1N1CCC(N(C)C)CC1 [crystal form II],weight loss in DVS,"[1]; 25° C., humidity above 10% RH",essentially no weight loss; also recorded: almost no weight loss
same,water absorbed,"[1]; DVS, 25° C., at 95% RH, after dewatering below 10% RH",6.9%
same,stability relationship crystal form II / IV,[2]; room temperature and 50° C.,more stable than hydrate crystal form IV
same,stability relationship crystal form I / II,"[2]; acetone/H2O, aw 0.2/0.4/0.6/0.8, room temperature, three days",more stable
"C=CC(=O)Nc1cc(Nc2ncc(F)c(-c3cnn(C)c3)n2)c(OC)cc1N1CCC(N(C)C)CC1 [the free base of compound of formula X, N-(2-(4-(dimethylamino)piperidin-1-yl)-5-(5-fluoro-4-(1-methyl-1H-pyrazol-4-yl)pyrimidin-2-ylamino)-4-methoxyphenyl)acrylamide]",Purity (%),"[3]; 5° C. (control), sealed",99.23%
same,Weight loss (%),"[3]; 5° C. (control), sealed",5.1%
same,Weight loss (%),"[3]; 25° C./60% RH, unsealed",5.3%
same,crystal transition,"[3]; 25° C./60% RH, unsealed",no
same,Weight loss (%),"[3]; 40° C./75% RH, unsealed",6.2%
same,crystal transition,"[3]; 40° C./75% RH, unsealed",no
same,"inhibitory activities against EGFR wild-type cells (A431 cells), in words",A431 cells [4],weak inhibitory activities
same,solubility at 1 h,"[5]; fasting state simulated intestinal fluid (FaSSIF), FaSSIF, after 1 hour of solid dispersion",4200 µg/mL
same,solubility at 1 h,"[5]; feeding state simulated intestinal fluid (FeSSIF), FeSSIF, after 1 hour of solid dispersion",≥ 10500 µg/mL
same,solubility at 1 h,"[5]; simulated gastric fluid (SGF), simulated gastric fluid, SGF, after 1 hour of solid dispersion",≥ 8500 µg/mL
same,solubility at 1 h,"[5]; fourth solvent (head is an image; water), after 1 hour",10 µg/mL
same,"inhibitory activities against EGFR wild-type enzyme, in words",EGFR WT kinase,weak inhibitory activities
same,"inhibitory activities against EGFR mutant cells (H1975 cells), in words",H1975 cells [6],strong inhibitory activities
C=CC(=O)Nc1cc(Nc2ncc(F)c(-c3cnn(C)c3)n2)c(OC)cc1N1CCC(N(C)C)CC1.O=C(O)C[C@H](O)C(=O)O [crystal form D],Purity (%),"[3]; 5° C. (control), sealed",99.37%
same,Weight loss (%),"[3]; 5° C. (control), sealed",1.6%
same,Weight loss (%),"[3]; 25° C./60% RH, unsealed",1.3%
same,crystal transition,"[3]; 25° C./60% RH, unsealed",no
same,Weight loss (%),"[3]; 40° C./75% RH, unsealed",1.2%
same,crystal transition,"[3]; 40° C./75% RH, unsealed",no
same,Maximum plasma concentration Cmax,[7],84.4 ng/mL
same,Area under the curve AUC,[7],1202 ng·h/mL
same,Half-life T1/2,[7],6.63 h
C=CC(=O)Nc1cc(Nc2ncc(F)c(-c3cnn(C)c3)n2)c(OC)cc1N1CCC(N(C)C)CC1.Cl [crystal form A],Purity (%),"[3]; 5° C. (control), sealed",99.45%
same,Weight loss (%),"[3]; 5° C. (control), sealed",3.0%
same,Weight loss (%),"[3]; 25° C./60% RH, unsealed",4.3%
same,crystal transition,"[3]; 25° C./60% RH, unsealed",no
same,Weight loss (%),"[3]; 40° C./75% RH, unsealed",3.4%
same,crystal transition,"[3]; 40° C./75% RH, unsealed",no
same,Maximum plasma concentration Cmax,[7],93.3 ng/mL
same,Area under the curve AUC,[7],1379 ng·h/mL
same,Half-life T1/2,[7],7.44 h
CN(C)C/C=C/C(=O)Nc1cc2c(Nc3ccc(F)c(Cl)c3)ncnc2cc1O[C@H]1CCOC1 [BIBW2992],IC50,NIH3T3 cells,2750 nM
C=CC(=O)Nc1cc(Nc2ncc(F)c(-c3cnn(C)c3)n2)c(OC)cc1N1CCC(N(C)C)CC1.O=C(O)CCCCC(=O)O [crystal form E],Purity (%),"[3]; 5° C. (control), sealed",99.30%
same,Weight loss (%),"[3]; 5° C. (control), sealed",0.1%
same,Weight loss (%),"[3]; 25° C./60% RH, unsealed",0.5%
same,crystal transition,"[3]; 25° C./60% RH, unsealed",no
same,Weight loss (%),"[3]; 40° C./75% RH, unsealed",0.4%
same,crystal transition,"[3]; 40° C./75% RH, unsealed",no
same,crystal form before and after the DVS test (XRPD),[1]; 25° C.,did not change
same,hygroscopicity,"[1]; DVS, 25° C.",slightly hygroscopic
same,moisture absorbed,[1]; DVS,0.5%
same,Maximum plasma concentration Cmax,[7],117 ng/mL
same,Area under the curve AUC,[7],1660 ng·h/mL
same,Half-life T1/2,[7],7.46 h
C=CC(=O)Nc1cc(Nc2ncc(F)c(-c3cnn(C)c3)n2)c(OC)cc1N1CCC(N(C)C)CC1 [crystal form IV],stability relationship crystal form II / IV,[2]; room temperature and 50° C.,quickly converted to hydrate crystal form II
C=CC(=O)Nc1cc(Nc2ncc(F)c(-c3cnn(C)c3)n2)c(OC)cc1N1CCC(N(C)C)CC1.O=P(O)(O)O [crystal form B],Purity (%),"[3]; 5° C. (control), sealed",99.56%
same,Weight loss (%),"[3]; 5° C. (control), sealed",4.1%
same,Weight loss (%),"[3]; 25° C./60% RH, unsealed",4.6%
same,crystal transition,"[3]; 25° C./60% RH, unsealed",no
same,Weight loss (%),"[3]; 40° C./75% RH, unsealed",4.5%
same,crystal transition,"[3]; 40° C./75% RH, unsealed",no
same,crystal form before and after the DVS test (XRPD),[1]; 25° C.,does not change
same,Maximum plasma concentration Cmax,[7],93.2 ng/mL
same,Area under the curve AUC,[7],1265 ng·h/mL
same,Half-life T1/2,[7],7.04 h
C=CC(=O)Nc1cc(Nc2nccc(-c3cn(C)c4ccccc34)n2)c(OC)cc1N(C)CCN(C)C [comparative compound 1],IC50,"A431 cells [4]; Homo sapiens, A-431, 72 h incubation",[…]
same,IC50,H1975 cells [8],29 nM
same,IC50,"H1975 cells [6]; Homo sapiens, NCI-H1975, 72 h incubation",13 nM
same,IC50,NIH3T3 cells,3550 nM
C=CC(=O)Nc1cc(Nc2ncc(F)c(-c3cnn(C)c3)n2)c(OC)cc1N1CCC(N(C)C)CC1 [crystal form I],humidity at turning point of DVS isotherm (transition from anhydrous crystal form I to hydrate form II),[1]; 25° C.,20 % RH
maleate,Solubility S,"[10]; 1,4-dioxane",S < 1.0 mg/ml
same,Solubility S,[10]; 2-methyltetrahydrofuran,S < 0.9 mg/ml
same,Solubility S,"[10]; N,N-dimethylacetamide",S > 20.0 mg/ml
same,Solubility S,[10]; N-methylpyrrolidone,S > 23.0 mg/ml
same,Solubility S,[10]; acetone,S < 1.1 mg/ml
same,Solubility S,[10]; dimethyl sulfoxide,S > 22.0 mg/ml
same,Solubility S,[10]; ethanol,S < 1.1 mg/ml
same,Solubility S,[10]; ethyl acetate,S < 0.9 mg/ml
same,Solubility S,[10]; isopropanol,S < 0.9 mg/ml
same,Solubility S,[10]; isopropyl acetate,S < 1.0 mg/ml
same,Solubility S,[10]; methyl isobutyl ketone,S < 0.9 mg/ml
same,Solubility S,[10]; methyl tert-butyl ether,S < 1.0 mg/ml
same,Solubility S,[10]; n-hexane,S < 1.0 mg/ml
same,Solubility S,[10]; tetrahydrofuran,S < 1.2 mg/ml
same,Solubility S,[10]; toluene,S < 1.1 mg/ml
C=CC(=O)Nc1cc(Nc2ncc(F)c(-c3cnn(C)c3)n2)c(OC)cc1N1CCC(N(C)C)CC1.O=C(O)/C=C\C(=O)O [crystal form C-1],Purity (%),"[3]; 5° C. (control), sealed",99.39%
same,Weight loss (%),"[3]; 5° C. (control), sealed",0.1%
same,Weight loss (%),"[3]; 25° C./60% RH, unsealed",1.2%
same,crystal transition,"[3]; 25° C./60% RH, unsealed",no
same,Weight loss (%),"[3]; 40° C./75% RH, unsealed",1.3%
same,crystal transition,"[3]; 40° C./75% RH, unsealed",no
same,crystal form and HPLC purity before and after the test,[11],did not change
same,crystal form before and after the DVS test (XRPD),[1]; 25° C.,did not change
same,hygroscopicity,"[1]; DVS, 25° C.",slightly hygroscopic
same,moisture absorbed,[1]; DVS,0.3%
same,Maximum plasma concentration Cmax,[7],86.3 ng/mL
same,Area under the curve AUC,[7],1233 ng·h/mL
same,Half-life T1/2,[7],7.92 h
same,stability relationship crystal form C-1 / C-2,"[2]; acetone, room temperature and 50° C., stirring 5 minutes",higher thermodynamic stability than crystal form C-2
